Legend:
[1] = tested on: Rhipicephalus sanguineus (dog tick); assay: Activity in vitro against Rhipicephalus sanguineus (dog tick), adult tick contact test in 96-well plate; settings: at 640 ppm, 10 minutes contact, incubated 7 days at 28° C. and 80% relative humidity
Method: 1. Activity In Vitro Against Rhipicephalus sanguineus (Dog Tick).
A clean adult tick population is used to seed a suitably formatted 96-well plate containing the test substances to be evaluated for antiparasitic activity. Each compound is tested by serial dilution in order to determine its minimal effective dose (MED). Ticks are left in contact with the test compound for 10 minutes and are then incubated at 28° C. and 80% relative humidity for 7 days, during which the test compound's effect is monitored. Acaricidal activity is confirmed if adult ticks are dead.

[2] = tested on: Ctenocephalides felis (cat flea); assay: Activity in vitro against Ctenocephalides felis (cat flea), artificial blood feeding system; settings: at 100 ppm; adult fleas fed on treated blood for 24 hours
Method: 2. Activity In Vitro Against Ctenocephalides felis (Cat Flea). A mixed adult population of fleas is placed in a suitably formatted 96-well plate allowing fleas to access and feed on treated blood via an artificial feeding system. Each compound is tested by serial dilution in order to determine its MED. Fleas are fed on treated blood for 24 hours, after which the compound's effect is recorded. Insecticidal activity is determined on the basis of the number of dead fleas recovered from the feeding system.

Q: What does the source list for `CC(O)(c1cn(-c2c(Cl)cc(C(F)(F)F)cc2Cl)c2cccnc12)C(F)(F)F` (centres unmarked) [Compound 1.43, 2-[1-(2,6-Dichloro-4-trifluoromethyl-phenyl)-1H-pyrrolo[3,2-b]pyridin-3-yl]-1,1,1-trifluoro-propan-2-ol]?
A: efficacy (acaricidal activity, dead adult ticks) [1]: more than 80%; efficacy (insecticidal activity, dead fleas) [2]: more than 80%

Reference: patent US20110021543A1, “HETEROCYCLIC COMPOUNDS AND THEIR USE AS PESTICIDES” (priority 2007, published 2011)
